Data set [1] is described as follows: acute toxicity, LD50, rabbits. To be noted: rabbit, in vivo, iv, Miller & Tainter method, read-out: LD50 /24 hrs/kg body weight. From the text:
The tests carried out concerned:

For data set [2], the system named is blood platelets (A.D.P. induced aggregation). The data set is described as follows: A.D.P. induced blood-platelet aggregation after oral treatment. Conditions: Rattus norvegicus, read-out: Percent Inhibition, A.D.P. Type of data set: in vivo, Wistar rats. As to the method: Blood was taken from the jugular vein of Wistar rats. […] (a) Determination of A.D.P. induced blood-platelet aggregation 0.4 ml plasma is placed in a siliconized tube provided with a magnet bar which is also siliconized. The tube is introduced into an aggregometer coupled with an apparatus which records the optical density variations. When light transmission has reached a stable value, 0.5 ml of a solution containing 10μ M A.D.P. (adenosine-di-phosphate) is added to the tube. Blood-platelet-aggregation produces then an increase of light transmission followed by a decrease subsequent to the deaggregation phase. The maximum optical density variation thus determined characterizes the intensity of the aggregation.

The subject of data set [3] is blood platelets (collagen-induced aggregation). The data set is described as follows: collagen-induced blood-platelet aggregation after oral treatment. To be noted: Rattus norvegicus, read-out: Percent Inhibition, Collagen. The format is in vivo, Wistar rats. As to the method:
Blood was taken from the jugular vein of Wistar rats. […] 0.4 ml plasma is placed in a siliconized tube provided with a magnet bar which is also siliconized. The tube is introduced into an aggregometer coupled with an apparatus which records the optical density variations. […] Blood-platelet-aggregation produces then an increase of light transmission followed by a decrease subsequent to the deaggregation phase. The maximum optical density variation thus determined characterizes the intensity of the aggregation. (b) Determination of collagen-induced blood-platelet-aggregation The A.D.P. solution is substituted with a collagen solution (bovine tendon extract).

Another data set concerns blood platelets. The data set is described as follows: blood-platelet count before and after adrenalin infusion. The format is in vivo, Mongrel dogs. To be noted: for Blood-platelet count, change prior to and after adrenalin infusion: oral, twice a day, 4 days, controls 32.4% decrease; for number of blood-platelets, in words: adrenalin infusion, dogs. As to the method:
(§1) This investigation concerned myocardial necrosis induced in animals under severe stress conditions which may be reproduced by infusion of adrenalin.
(§2) Mongrel dogs of either sex, weighing about 10 kg, were distributed into groups of 5 animals each: except for one group of untreated dogs (controls, Group 1), the other groups were orally administered the test material, twice a day, for 4 days, repsectively:
(§3) Eighteen hours after the last treatment the dogs were anesthetized with phenobarbital (25 mg/kg, i.v.); a catheter was placed in the femoral artery, the blood pressure was recorded via a STAHAM P 23 GD sensor and the ECG was recorded (D1 and D2) with a RACIA polygraph. The adrenalin was infused by the cephalic route at a dosage of 4 μg/kg/mn at a rate of 2 ml/mn for 4 hours.
Arterial blood samples were taken before and after the end of the infusion, to effect the blood-platelet counts.

Another data set deals with Mongrel dogs. The data set can be described thus: survival on the 7th day after adrenalin infusion. Conditions: for number of animals that survived on the 7th day after adrenalin infusion: oral, twice a day, 4 days, control 2/5; for survival time, in words: adrenalin infusion, dogs. Type of data set: in vivo. The method, then: as §1, §2, §3
(§4) The animals were freed from the catheters and were allowed to wake up. The animals which survived 7 days later were sacrificed and autopsied; the hearts were cut out and examined macroscopically prior to taking samples for histological examination. Any macroscopic anomalies are rated according to the following code (Table II) which was established arbitrarily and which takes into account the extent of the damages (p.9).
The number of animals that survived on the 7th day after adrenalin infusion is reported below: […]

The subject of another data set is myocardial necrosis. The data set is described as follows: adrenalin-induced myocardial necrosis, macroscopic lesions. Type of data set: in vivo, Mongrel dogs. To be noted: for Macroscopic Lesions, necrosis score: oral, twice a day, 4 days, control 18.0; for necrosis / macroscopic lesions, in words: adrenalin infusion, dogs, vs controls. As to the method:
as §1, §3, §4

The subject of another data set is platelet. Conditions: in man; Goodman and Gilman 1975; cited from earlier work.
Data set [4] concerns platelet aggregation (collagen). To be noted: Packham et al 1967; cited from earlier work.
Data set [5] concerns platelet aggregation (antigen-antibody complexes). Conditions: Packham et al 1967; cited from earlier work.
Data set [6] can be described thus: acute toxicity, LD50, rats. Conditions: rat, in vivo.
Data set [7] in a line: acute toxicity, LD50, mice. Conditions: mouse, in vivo.
Setting [8] is: Group 4: 10 mg/kg sulfinpyrazone, oral, 3 hours after treatment, vs control.
[9] abbreviates: Group 5: 20 mg/kg sulfinpyrazone, oral, 3 hours after treatment, vs control.
Setting [10] is: Group 4: 20 mg/kg sulfinpyrazone.
[11] abbreviates: Group 5: 40 mg/kg sulfinpyrazone.
Setting [12] is: Group 2: 50 mg/kg ticlopidine hydrochloride.
The mark [13] stands for this setting: Group 3: 100 mg/kg ticlopidine hydrochloride.

Entries after “also recorded” stand apart in the source; their conditions may differ. Counter-ions that a name gives are not always drawn.

On to `O=C1C(CC[S+]([O-])c2ccccc2)C(=O)N(c2ccccc2)N1c1ccccc1` (stereo not shown) [sulfinpyrazone, 1,2-diphenyl-(2'-phenylsulfinyl-ethyl)pyrazolidine-3,5-dione], for which the LD50 at 24 h turned out to be 195 mg/kg in data set [1]; 154 mg/kg in data set [6] (iv); 375 mg/kg in data set [6] (po); 240 mg/kg in [7] (iv); 298 mg/kg in [7] (po). Further, the inhibition (as a rule, the share of the control response that was lost under treatment) at 10 mg/kg in [2] (setting [8]) turned out to be 8.7%; in data set [3] (setting [8]) it was 12.7%. The inhibition at 20 mg/kg in data set [2] (setting [9]) was 14.1%; in data set [3] (setting [9]), 20.5%. Further, the results for the “Blood-platelet count, change prior to and after adrenalin infusion” value in the data set with blood platelets (setting [10]) and with blood platelets (setting [11]) were -12% and -7%, respectively. Moreover, the “number of blood-platelets, in words” value with blood platelets was “no effect”. Besides, the “number of animals that survived on the 7th day after adrenalin infusion” value with Mongrel dogs (setting [10]) and with Mongrel dogs (setting [11]) was 2/5 in each case. The “survival time, in words” value in the data set with Mongrel dogs is “no effect”. The “Macroscopic Lesions, necrosis score” value turned out to be 18.2 in the data set with myocardial necrosis (setting [10]) and 17.4 in the data set with myocardial necrosis (setting [11]). Also, the “necrosis / macroscopic lesions, in words” value with myocardial necrosis is “substantially identical with those of the controls; also recorded: no effect”. The platelet survival result in the data set with platelet is “prolongs platelet survival”. In addition, the “platelet aggregation in response to collagen” value in data set [4] was “blocks platelet aggregation”. In data set [5], the “platelet aggregation in response to antigen-antibody complexes” value is on record as “blocks platelet aggregation”.
Take `Clc1ccccc1CN1CCc2sccc2C1` [ticlopidine hydrochloride, 5-(2-chloro-benzyl)-4,5,6,7-tetrahydro-thieno[3,2-c]pyridine]: the inhibition at 25 mg/kg is 28.5% in [2] (po, 3 h) and 48.6% in [3] (po, 3 h). Moreover, the inhibition at 50 mg/kg in data set [2] (po, 3 h) worked out at 40.6%; in data set [3] (po, 3 h), 58.3%. Besides, the figures for the “Blood-platelet count, change prior to and after adrenalin infusion” value in the data set on blood platelets (setting [12]) and in the data set with blood platelets (setting [13]) were “+14%” and “+13.2%”, respectively. The “number of blood-platelets, in words” value in the data set with blood platelets was “increases the number of blood-platelets”. The “number of animals that survived on the 7th day after adrenalin infusion” value was 3/5 in the data set on Mongrel dogs (setting [12]) and 4/5 in the data set with Mongrel dogs (setting [13]). Moreover, the “survival time, in words” value in the data set with Mongrel dogs was “improves the survival time”. The “Macroscopic Lesions, necrosis score” value with myocardial necrosis (setting [12]) worked out at 6.8; with myocardial necrosis (setting [13]) it was 4.8. For the same molecule, the “necrosis / macroscopic lesions, in words” value with myocardial necrosis is on record as “significant protection against myocardia necrosis”.

(Values after patent US4537894A, “Methods of using compositions having antithrombotic and anti-blood-platelet-aggregating activity” (priority 1978, dated 1985).)
